biological target: T1, human NEP (Homo sapiens, UniProt P08473); experiment: In vitro enzyme inhibition assay, inhibitor potency at human NEP (Assay 1); format: biochemical; conditions: recombinant human NEP; fluorogenic peptide substrate 10 μM; 37° C.; values given as ranges
T1 construct: purchased R&D Systems, Minneapolis, Minn; 1182-ZN
Experimental: The inhibitory activities of compounds at human and rat neprilysin (EC 3.4.24.11; NEP) and human angiotensin converting enzyme (ACE) were determined using in vitro assays as described below.
Recombinant human NEP and recombinant human ACE were obtained commercially (R&D Systems, Minneapolis, Minn., catalog numbers 1182-ZN and 929-ZN, respectively). The fluorogenic peptide substrate Mca-D-Arg-Arg-Leu-Dap-(Dnp)-OH (Medeiros et al. (1997) Braz. J. Med. Biol. Res. 30:1157-62; Anaspec, San Jose, Calif.) and Abz-Phe-Arg-Lys(Dnp)-Pro-OH (Araujo et al. (2000) Biochemistry 39:8519-8525; Bachem, Torrance, Calif.) were used in the NEP and ACE assays respectively.
The assays were performed in 384-well white opaque plates at 37° C. using the fluorogenic peptide substrates at a concentration of 10 μM in Assay Buffer (NEP: 50 mM HEPES, pH 7.5, 100 mM NaCl, 0.01% polyethylene glycol sorbitan monolaurate (Tween-20), 10 μM ZnSO4; ACE: 50 mM HEPES, pH 7.5, 100 mM NaCl, 0.01% Tween-20, 1 μM ZnSO4).
Test compounds were assayed over the range of concentrations from […] to 20 μM. Test compounds were added to the enzymes and incubated for 30 minute at 37° C. prior to initiating the reaction by the addition of substrate. Reactions were terminated after 20 minutes of incubation at 37° C. by the addition of glacial acetic acid to a final concentration of 3.6% (v/v).
Plates were read on a fluorometer with excitation and emission wavelengths set to 320 nm and 405 nm, respectively. Inhibition constants were obtained by nonlinear regression of the data using the equation (GraphPad Software, Inc., San Diego, Calif.): ν=ν0/[1+(I/K′)] where ν is the reaction rate, ν0 is the uninhibited reaction rate, I is the inhibitor concentration and K′ is the apparent inhibition constant.
Compounds of the invention were tested in this assay and found to have pKi values at human NEP as follows.

T1 sequence (P08473 52-750 limits assumed): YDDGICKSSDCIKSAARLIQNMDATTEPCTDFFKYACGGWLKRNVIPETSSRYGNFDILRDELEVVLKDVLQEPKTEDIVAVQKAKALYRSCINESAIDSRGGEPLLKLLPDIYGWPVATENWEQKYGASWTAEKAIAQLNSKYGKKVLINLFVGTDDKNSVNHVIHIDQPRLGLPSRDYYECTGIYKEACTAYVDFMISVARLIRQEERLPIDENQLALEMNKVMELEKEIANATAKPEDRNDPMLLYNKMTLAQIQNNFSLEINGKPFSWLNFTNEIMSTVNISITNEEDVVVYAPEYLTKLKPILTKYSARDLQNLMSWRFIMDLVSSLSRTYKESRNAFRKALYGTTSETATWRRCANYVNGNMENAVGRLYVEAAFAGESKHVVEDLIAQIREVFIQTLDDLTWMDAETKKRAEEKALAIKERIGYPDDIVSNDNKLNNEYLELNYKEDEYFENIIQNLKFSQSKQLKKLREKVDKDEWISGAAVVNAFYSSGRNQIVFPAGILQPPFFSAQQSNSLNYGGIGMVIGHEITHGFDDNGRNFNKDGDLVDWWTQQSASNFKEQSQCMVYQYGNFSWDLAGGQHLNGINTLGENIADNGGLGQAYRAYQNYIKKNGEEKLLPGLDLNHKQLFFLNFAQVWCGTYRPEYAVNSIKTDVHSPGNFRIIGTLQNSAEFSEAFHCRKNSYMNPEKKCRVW

SMILES | Ki [µM] | pKi
CCOC(=O)N1CCN(C(=O)C(=O)N[C@H](Cc2ccc(-c3cccc(Cl)c3)cc2)C[C@@H](O)C(=O)O)CC1 [Example 4-35, 4-[(1R,3R)-3-Carboxy-1-(3′-chlorobiphenyl-4-ylmethyl)-3-hydroxy-propylaminooxalyl]-piperazine-1-carboxylic acid ethyl ester] | 0.01 to 0.0316 | –
O=C(N[C@H](Cc1ccc(-c2cccc(Cl)c2)cc1)C[C@@H](O)C(=O)O)C1CCCCO1 (stereo partly drawn) [Example 9, (2R,4R)-5-(3′-Chlorobiphenyl-4-yl)-2-hydroxy-4-[(tetrahydropyran-2-carbonyl)amino]pentanoic Acid] | 0.001 to 0.01 | –
CCOCC(=O)N[C@H](Cc1ccc(-c2cccc(Cl)c2)cc1)C[C@@H](O)C(=O)O [Example 10-3, (2R,4R)-5-(3′-Chlorobiphenyl-4-yl)-4-(2-ethoxyacetylamino)-2-hydroxy-pentanoic acid] | 0.01 to 0.0316 | –
O=C(N[C@H](Cc1ccc(-c2cccc(Cl)c2)cc1)C[C@@H](O)C(=O)O)C(=O)N1CCN(C(=O)c2ccco2)CC1 [Example 4-36, (2R,4R)-5-(3′-Chlorobiphenyl-4-yl)-4-{2-[4-(furan-2-carbonyl)-piperazin-1-yl]-2-oxo-acetylamino}-2-hydroxypentanoic acid] | 0.001 to 0.01 | –
C[C@@H]1CO[C@@H](C)CN1C(=O)C(=O)N[C@H](Cc1ccc(-c2cccc(Cl)c2)cc1)C[C@@H](O)C(=O)O [Example 4-46, (2R,4R)-5-(3′-Chlorobiphenyl-4-yl)-4-[2-((2S,5R)-2,5-dimethylmorpholin-4-yl)-2-oxo-acetylamino]-2-hydroxypentanoic acid] | 0.001 to 0.01 | –
O=C(N[C@H](Cc1ccc(-c2cccc(Cl)c2)cc1)C[C@@H](O)C(=O)O)C(=O)N1CCC(F)CC1 [Example 4-31, (2R,4R)-5-(3′-Chlorobiphenyl-4-yl)-4-[2-(4-fluoropiperidin-1-yl)-2-oxo-acetylamino]-2-hydroxypentanoic acid] | 0.01 to 0.0316 | –
O=C(N[C@H](Cc1ccc(-c2cccc(Cl)c2)cc1)C[C@@H](O)C(=O)O)C(=O)N1CCCC[C@@H]1CO [Example 4-25, (2R,4R)-5-(3′-Chlorobiphenyl-4-yl)-2-hydroxy-4-[2-((R)-2-hydroxymethyl-piperidin-1-yl)-2-oxo-acetylamino]pentanoic acid] | ≤ 0.001 | –
C[C@@H]1COC[C@H](C)N1C(=O)C(=O)N[C@H](Cc1ccc(-c2cccc(Cl)c2)cc1)C[C@@H](O)C(=O)O [Example 4-42, (2R,4R)-5-(3′-Chlorobiphenyl-4-yl)-4-[2-((3R,5S)-3,5-dimethylmorpholin-4-yl)-2-oxo-acetylamino]-2-hydroxypentanoic acid] | 0.01 to 0.0316 | –
O=C(N[C@H](Cc1ccc(-c2cccc(Cl)c2)cc1)C[C@@H](O)C(=O)O)C(=O)N1CCCC(CCO)C1 (stereo partly drawn) [Example 4-32, (2R,4R)-5-(3′-Chlorobiphenyl-4-yl)-2-hydroxy-4-{2-[3-(2-hydroxyethyl)-piperidin-1-yl]-2-oxo-acetylamino}pentanoic acid] | 0.01 to 0.0316 | –
COCC1CCN(C(=O)C(=O)N[C@H](Cc2ccc(-c3cccc(Cl)c3)cc2)C[C@@H](O)C(=O)O)CC1 [Example 4-19, (2R,4R)-5-(3′-Chlorobiphenyl-4-yl)-2-hydroxy-4-[2-(4-methoxymethyl-piperidin-1-yl)-2-oxo-acetylamino]pentanoic acid] | 0.01 to 0.0316 | –
O=C(COc1ccccc1)N[C@H](Cc1ccc(-c2cccc(Cl)c2)cc1)C[C@@H](O)C(=O)O [Example 10-7, (2R,4R)-5-(3′-Chlorobiphenyl-4-yl)-2-hydroxy-4-(2-phenoxyacetylamino)-pentanoic acid] | 0.01 to 0.0316 | –
O=C(N[C@H](Cc1ccc(-c2cccc(Cl)c2)cc1)C[C@@H](O)C(=O)O)C(=O)N1CCC[C@@H](O)C1 [Example 4-21, (2R,4R)-5-(3′-Chlorobiphenyl-4-yl)-2-hydroxy-4-[2-((R)-3-hydroxy-piperidin-1-yl)-2-oxo-acetylamino]pentanoic acid] | 0.001 to 0.01 | –
C[C@@](CO)(C[C@@H](Cc1ccc(-c2cccc(Cl)c2)cc1)NC(=O)COCc1ccccc1)C(=O)O [Example 12, (2S,4R)-4-(2-Benzyloxyacetylamino)-5-(3′-chlorobiphenyl-4-yl)-2-hydroxymethyl-2-methyl-pentanoic acid] | 0.01 to 0.0316 | –
NC(=O)C1CCN(C(=O)C(=O)N[C@H](Cc2ccc(-c3cccc(Cl)c3)cc2)C[C@@H](O)C(=O)O)CC1 [Example 4-29, (2R,4R)-4-[2-(4-Carbamoyl-piperidin-1-yl)-2-oxo-acetylamino]-5-(3′-chlorobiphenyl-4-yl)-2-hydroxypentanoic acid] | 0.01 to 0.0316 | –

Next, values leading:

Ki [µM] | pKi | SMILES
0.001 to 0.01 | – | O=C(NNc1cccc(Cl)c1)C(=O)N[C@H](Cc1ccc(-c2cccc(Cl)c2)cc1)C[C@@H](O)C(=O)O [Example 6-9, (2R,4R)-5-(3′-Chlorobiphenyl-4-yl)-4-{[N′-(3-chloro-phenyl)-hydrazinooxalyl]-amino}-2-hydroxypentanoic acid]
– | 8.0-9.0 | O=C(N[C@H](Cc1ccc(-c2cccc(Cl)c2)cc1)C[C@@H](O)C(=O)O)C(=O)N(O)c1ccccc1 [Example 4-9, (2R,4R)-5-(3′-Chlorobiphenyl-4-yl)-2-hydroxy-4-[(hydroxyphenylaminooxalyl)-amino]pentanoic acid]
0.001 to 0.01 | – | O=C(NNc1ccccc1F)C(=O)N[C@H](Cc1ccc(-c2cccc(Cl)c2)cc1)C[C@@H](O)C(=O)O [Example 6-8, (2R,4R)-5-(3′-Chlorobiphenyl-4-yl)-4-{[N′-(2-fluoro-phenyl)-hydrazinooxalyl]-amino}-2-hydroxypentanoic acid]
0.001 to 0.01 | – | O=C(NNc1ccc(Cl)cc1)C(=O)N[C@H](Cc1ccc(-c2cccc(Cl)c2)cc1)C[C@@H](O)C(=O)O [Example 6-13, (2R,4R)-5-(3′-Chlorobiphenyl-4-yl)-4-{[N′-(4-chloro-phenyl)-hydrazinooxalyl]-amino}-2-hydroxypentanoic acid]
0.001 to 0.01 | – | O=C(Cc1ccccc1)C(=O)N[C@H](Cc1ccc(-c2cccc(Cl)c2)cc1)C[C@@H](O)C(=O)O [Example 2-2, (2R,4R)-5-(3′-Chloro-biphenyl-4-yl)-2-hydroxy-4-(2-oxo-3-phenyl-propionylamino)-pentanoic acid]
0.001 to 0.01 | – | O=C(NNC(=O)c1ccccc1[N+](=O)[O-])C(=O)N[C@H](Cc1ccc(-c2cccc(Cl)c2)cc1)C[C@@H](O)C(=O)O [Example 8-6, (2R,4R)-5-(3′-Chlorobiphenyl-4-yl)-2-hydroxy-4-{2-[N′-(2-nitro-benzoyl)-hydrazino]-2-oxo-acetylamino}pentanoic acid]
0.01 to 0.0316 | – | O=C(COc1ccc(O)cc1)N[C@H](Cc1ccc(-c2cccc(Cl)c2)cc1)C[C@@H](O)C(=O)O [Example 10-8, (2R,4R)-5-(3′-Chlorobiphenyl-4-yl)-2-hydroxy-4-[2-(4-hydroxyphenoxy)-acetylamino]-pentanoic acid]
0.001 to 0.01 | – | CCC(=O)C(=O)N[C@H](Cc1ccc(-c2cccc(Cl)c2)cc1)C[C@@H](O)C(=O)O [Example 1, (2R,4R)-5-(3′-Chlorobiphenyl-4-yl)-2-hydroxy-4-(2-oxobutyrylamino)pentanoic Acid]
0.01 to 0.0316 | – | O=C(Nc1ccc(Br)nc1)C(=O)N[C@H](Cc1ccc(-c2cccc(Cl)c2)cc1)C[C@@H](O)C(=O)O [Example 4-2, (2R,4R)-4-[(6-Bromopyridin-3-ylaminooxalyl)amino]-5-(3′-chlorobiphenyl-4-yl)-2-hydroxypentanoic acid]
– | 7.5-8.0 | CN(O)C(=O)C(=O)N[C@H](Cc1ccc(-c2cccc(Cl)c2)cc1)C[C@@H](O)C(=O)O [Example 4-10, (2R,4R)-5-(3′-Chlorobiphenyl-4-yl)-2-hydroxy-4-[(hydroxymethylaminooxalyl)-amino]pentanoic acid]
0.01 to 0.0316 | – | O=C(Nc1ccncc1)C(=O)N[C@H](Cc1ccc(-c2cccc(Cl)c2)cc1)C[C@@H](O)C(=O)O [Example 4-3, (2R,4R)-5-(3′-Chlorobiphenyl-4-yl)-2-hydroxy-4-[(pyridin-4-ylaminooxalyl)-amino]-pentanoic acid]
0.001 to 0.01 | – | O=C(NNc1ccncc1)C(=O)N[C@H](Cc1ccc(-c2cccc(Cl)c2)cc1)C[C@@H](O)C(=O)O [Example 6-3, (2R,4R)-5-(3′-Chlorobiphenyl-4-yl)-2-hydroxy-4-[(N′-pyridin-4-yl-hydrazino-oxalyl)-amino]pentanoic acid]
0.001 to 0.01 | – | Cc1ccccc1NNC(=O)C(=O)N[C@H](Cc1ccc(-c2cccc(Cl)c2)cc1)C[C@@H](O)C(=O)O [Example 6-10, (2R,4R)-5-(3′-Chlorobiphenyl-4-yl)-2-hydroxy-4-[(N′-o-tolyl-hydrazinooxalyl)-amino]-pentanoic acid]
0.001 to 0.01 | – | Cc1ccncc1NC(=O)C(=O)N[C@H](Cc1ccc(-c2cccc(Cl)c2)cc1)C[C@@H](O)C(=O)O [Example 4-4, (2R,4R)-5-(3′-Chlorobiphenyl-4-yl)-2-hydroxy-4-[(4-methylpyridin-3-ylaminooxalyl)amino]pentanoic acid]
